Assay results taken from patent US20240002416A1 (Rheinische-Friedrich-Wilhelms-Universität Bonn, priority 2020, published 2024).

Experiments:
Type in all cases: cell-based
MRGPRX4-83S [1] = target: T1, MRGPRX4-83S (Homo sapiens, UniProt Q96LA9, L83S); assay: Calcium assay (human glioblastoma LN229 cells expressing the MRGPRX4-83S); design: LN229 glioblastoma cells natively expressing the MRGPRX4-83S; endogenous in cells; host or cells: LN229 human glioblastoma cells; details: for EC50: calcium mobilization, LN229 cells, MRGPRX4-83S, read-out: EC50 ± SEM; for Emax: LN-229, efficacy based on 30 μM H-1 (set as 100%), read-out: Emax
Experimental: (§1) For β-arrestin recruitment assays, recombinant Chinese hamster ovary (CHO) cells expressing the human MRGPRX4 were used (DiscoverX/Eurofins) which allowed to measure β-galactosidase complementation upon β-arrestin recruitment. For calcium mobilization assays, recombinant astrocytes expressing MRGPX4-83L, or LN229 glioblastoma cells natively expressing the MRGPRX4-83S, were used.
(§2) The assays were performed as previously described for other rhodopsin-like GPCRs (Müller, C.E.; 8-Benzamidochromen-4-one-2-carboxylic acids: potent and selective agonists for the orphan G protein-coupled receptor GPR35. J. Med. Chem. 2013, 56:5182-97; Müller, C.E. Molecular Recognition of Agonists and Antagonists by the Nucleotide-Activated G Protein-Coupled P2Y2 Receptor. J. Med. Chem. 2017, 60:8425-8440).

human MRGPRX4-83L [2] = target: T2, human MRGPRX4-83L (Homo sapiens, UniProt Q96LA9); assay: β-arrestin assay (CHO β-arrestin ARMS1-ProLink 2 human MRGPRX4 83L); details: for EC50: β-arrestin recruitment, CHO cells, MRGPRX4-83L, read-out: EC50 ± SEM; for IC50: inhibition of the effect of 2.6 μM B-16; for Emax: efficacy based on maximal effect of 100 nM B-16 (set as 100%), read-out: Emax
T2 construct: host or cells: CHO β-arrestin cells
Experimental: as §1, §2

human MRGPRX4-83L [3] = target: T2, human MRGPRX4-83L; assay: Calcium assay (human MRGPRX4 83L), recombinant astrocytes; details: for EC50: calcium mobilization, MRGPRX4-83L, read-out: EC50 ± SEM; for Emax: efficacy based on maximal effect of 1 μM B-16 (set as 100%), read-out: Emax
Experimental: as §1, §2

MRGPRX4-83S [4] = target: T1, MRGPRX4-83S; assay: β-arrestin assay (CHO β-arrestin human MRGPRX4-83S); design: host or cells: CHO β-arrestin cells; details: for EC50: β-arrestin recruitment, CHO cells, MRGPRX4-83S, read-out: EC50 ± SEM; for Emax: efficacy based on 100 nM B-16 (set as 100%), read-out: Emax
Experimental: as §1, §2

[5] = Table 1, means of 3-4 experiments

T1 sequence (Q96LA9 whole entry L83S): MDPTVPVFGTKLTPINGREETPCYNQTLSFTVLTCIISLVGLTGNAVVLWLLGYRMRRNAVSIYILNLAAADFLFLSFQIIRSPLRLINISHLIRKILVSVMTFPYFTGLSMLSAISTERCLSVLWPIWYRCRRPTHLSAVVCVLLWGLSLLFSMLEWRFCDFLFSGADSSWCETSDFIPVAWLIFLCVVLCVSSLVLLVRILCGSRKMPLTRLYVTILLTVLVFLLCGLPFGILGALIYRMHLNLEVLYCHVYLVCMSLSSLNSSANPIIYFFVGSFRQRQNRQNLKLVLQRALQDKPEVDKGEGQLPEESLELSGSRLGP
T2 sequence (Q96LA9 whole entry): as the sequence (Q96LA9 whole entry L83S) above, with S83L counted along it

Row | SMILES | IC50 (MRGPRX4-83S [1]) | EC50 (MRGPRX4-83S [1]; Table 3) | EC50 (human MRGPRX4-83L [2]; Table 4) | EC50 (human MRGPRX4-83L [3]; Table 4) | EC50 (MRGPRX4-83S [4]; Table 3) | IC50 (human MRGPRX4-83L [2]; Table 1) | EC50 (human MRGPRX4-83L [2]; [5]) | IC50 (human MRGPRX4-83L [3]) | EC50 (human MRGPRX4-83L [3]; Table 1) | EC50 (MRGPRX4-83S [4]; Table 2) | Emax (MRGPRX4-83S [1]; Table 2) | EC50 (MRGPRX4-83S [1]; Table 2) | Emax (human MRGPRX4-83L [2]; Table 1) | Emax (human MRGPRX4-83L [3]; Table 1) | Emax (MRGPRX4-83S [4]; Table 2) | value in brackets beside IC50 >10 (human MRGPRX4-83L [2]; Table 1, bracketed value ± spread in IC50 column, not defined, inhibition of 2.6 μM B-16)
1 | C#CCn1c(=O)c2c(nc(Cc3ccc4ccccc4c3)n2CC)n(CCCCP(=O)(O)O)c1=O [B-58] | 31.7 ± 19.1 nM | > 10000 nM | > 10 µM | > 10 µM | > 100000 nM |  |  |  |  |  |  |  |  |  |  | 
2 | C#CCn1c(=O)c2[nH]c(CCc3ccc(OC)c(OC)c3)nc2n(CCCCP(=O)(OCC)OCC)c1=O [C-8, Diethyl (4-(8-(3,4-dimethoxyphenethyl)-2,6-dioxo-1-(prop-2-yn-1-yl)-1,2,6,7-tetrahydro-3H-purin-3-yl)butyl)phosphonate] |  |  |  |  |  | > 10 µM | > 10 µM | > 10 µM | > 10 µM | > 10000 nM |  |  |  |  |  | 
3 | C#CCn1c(=O)c2[nH]c(CCc3cccc(OC)c3)nc2n(CCCCP(=O)(O)O)c1=O [B-2, (4-(8-(3-Methoxyphenethyl)-2,6-dioxo-1-(prop-2-yn-1-yl)-1,2,6,7-tetrahydro-3H-purin-3-yl)butyl)phosphonic acid] |  |  |  |  |  |  | 5.71 ± 1.23 µM |  | 0.435 ± 0.078 µM | 32 ± 11 nM | 99% | 11.2 ± 1.3 nM | 91% | 102% | 98% | 
4 | CCCn1c(=O)c2c(nc(CCc3cccc(OC)c3)n2C)n(CCCOP(=O)(O)O)c1=O [H-2, 3-(8-(3-Methoxyphenethyl)-7-methyl-2,6-dioxo-1-propyl-1,2,6,7-tetrahydro-3H-purin-3-yl)propyl dihydrogen phosphate, reference compound] |  |  |  |  |  | > 10 µM | > 10 µM |  | 2.5 ± 0.73 µM | 674 ± 50 nM | 88% | 801 ± 233 nM |  | 113% |  | 
5 | C#CCn1c(=O)c2[nH]c(CCc3cccc(OC)c3)nc2n(CCCCP(=O)(OCC)OCC)c1=O [C-6, Diethyl (4-(8-(3-methoxyphenethyl)-2,6-dioxo-1-(prop-2-yn-1-yl)-1,2,6,7-tetrahydro-3H-purin-3-yl)butyl)phosphonate] |  |  |  |  |  | > 10 µM | > 10 µM | > 10 µM | > 10 µM | > 10000 nM |  |  |  |  |  | 
6 | CCOP(=O)(CCCCn1c(=O)n(CC)c(=O)c2[nH]c(COc3ccccc3)nc21)OCC [C-10, Diethyl (4-(1-ethyl-2,6-dioxo-8-(phenoxymethyl)-1,2,6,7-tetrahydro-3H-purin-3-yl)butyl)phosphonate] |  |  |  |  |  | > 10 µM | > 10 µM | > 10 µM | > 10 µM | > 10000 nM |  |  |  |  |  | 
7 | CCn1c(=O)c2[nH]c(CCc3cccc(OC)c3)nc2n(CCCCP(=O)(O)O)c1=O [B-12, (4-(1-Ethyl-8-(3-methoxyphenethyl)-2,6-dioxo-1,2,6,7-tetrahydro-3H-purin-3-yl)butyl)phosphonic acid] |  |  |  |  |  | > 10 µM | > 10 µM |  | 3.8 ± 0.19 µM | 1190 ± 50 nM | 94% | 214 ± 51 nM |  | 104% | 102% | −27 ± 9
8 | C#CCn1c(=O)c2[nH]c(CCc3ccccc3)nc2n(CCCCP(=O)(O)O)c1=O [B-1, (4-(2,6-Dioxo-8-phenethyl-1-(prop-2-yn-1-yl)-1,2,6,7-tetrahydro-3H-purin-3-yl)butyl)phosphonic acid] |  |  |  |  |  | > 10 µM | > 10 µM |  | 3.25 ± 0.61 µM | 399 ± 115 nM | 92% | 134 ± 17 nM |  | 110% | 84% | 
9 | C#CCn1c(=O)c2c(nc(CCc3ccccc3Br)n2C)n(CCCCP(=O)(O)OCC)c1=O [D-1, Ethyl hydrogen (4-(8-(2-bromophenethyl)-7-methyl-2,6-dioxo-1-(prop-2-yn-1-yl)-1,2,6,7-tetrahydro-3H-purin-3-yl)butyl)phosphonate] |  |  |  |  |  |  | 0.395 ± 0.126 µM |  | 0.0555 ± 0.009 µM | 114 ± 23 nM | 105% | 134 ± 12 nM | 108% | 115% | 120% | 
